Results from patent publication US20150031655A1, “COMBINATION OF LIVER X RECEPTOR MODULATOR AND ESTROGEN RECEPTOR MODULATOR FOR THE TREATMENT OF AGE-RELATED DISEASES” (UNIVERSITY OF NORTH DAKOTA, priority 2011, published 2015).

How the values were obtained:
[1] = tested on: TH mRNA; assay: Real time RT-PCR of TH mRNA in SH-SY5Y cells; type: cell-based, human; settings: 24 h, treatment alone vs control
Description: (§1) Human neuroblastoma SH-SY5Y cells were grown in DMEM/F12 medium containing 10% fetal bovine serum (FBS) and 1% antibiotic/antimycotic mix. Cells were maintained at 37° C. in a saturated humidity atmosphere containing 95% air and 5% CO2.
Total RNA was isolated and extracted from treated cells using the 5 prime “PerfectPure RNA tissue kit” (5 Prime, Inc., Gaithersburg, Md.). RNA estimation was performed using “Quant-iT RNA Assay Kit” using a Qubit fluorometer according to the manufacturer's protocol (Invitrogen, Carlsbad, Calif.). cDNA was synthesized by reverse transcribing 1 μg of extracted RNA using an “iScript cDNA synthesis kit” (BioRad, Hercules, Calif.). The oligomeric primers (Sigma, St Louis, Mo.) used to amplify the TH mRNA and α-synuclein mRNA are enumerated in Table 1. The cDNA amplification was performed using an iQ SYBR Green Supermix kit following the manufacturer's instructions (BioRad, Hercules, Calif.). The amplification was performed using an iCycler iQ Multicolor Real Time PCR Detection System (BioRad, Hercules, Calif.). The expression of specific TH and α-synuclein transcripts amplified were normalized to the expression of glyceraldehyde-3-phosphate dehydrogenase (GAPDH).

[2] = molecular target: T1, ERβ (Homo sapiens, UniProt Q92731); assay: Western blot of ERβ levels in the nucleus (nuclear translocation), SH-SY5Y cells; type: cell-based; settings: 24 h, treatment alone vs control
T1 construct: endogenous in cells; host or cells: SH-SY5Y human neuroblastoma cells
Description: as §1
Treated SH-SY5Y cells were washed with PBS and trypsinized to collect the cells and centrifuged at 5000 g. The pellet was washed again with PBS and homogenized in NE-PER tissue protein extraction reagent (Thermo Scientific, Rockford, Ill.) supplemented with protease and phosphatase inhibitors. Protein concentrations from the cytosolic and nuclear homogenates were determined with BCA protein assay.
Proteins (10 μg) were separated on SDS-PAGE gels, transferred to a polyvinylidene difluoride membrane (BioRad, Hercules, Calif.), and incubated with the following monoclonal antibodies: anti-TH mouse antibody (1:1000; Sigma Aldrich, Saint Louis, Mo.), anti-α-synuclein mouse antibody (1:500; Chemicon, Temecula, Calif.), anti-ERα rabbit antibody (1:500; Abcam, Cambridge, Mass.), anti-ERβ rabbit antibody (1:200; Upstate, Lake Placid, N.Y.), anti-LXRα rabbit antibody (1:500; Abcam, Cambridge, Mass.), anti-LXRβ mouse antibody (1:500; Abcam, Cambridge, Mass.).
β-actin and Lamin A were used as a gel loading control for cytosolic homogenates and nuclear homogenates respectively. The blots were developed with enhanced chemiluminescence (Immmun-star HRP chemiluminescent kit, Bio-Rad, Hercules, Calif.). Bands were visualized on a polyvinylidene difluoride membrane and analyzed by LabWorks 4.5 software on a UVP Bioimaging System (Upland, Calif.). Quantification of results was performed by densitometry and the results analyzed as total integrated densitometric values (arbitrary units).

[3] = molecular target: T1, ERβ; assay: ChIP, ERβ binding to the ERE half site in the TH promoter; type: cell-based; settings: SH-SY5Y, treatment alone vs control
Description: as §1
ChIP analysis was performed to evaluate the extent of ERα/ERβ and LXRα/LXRβ binding to the DNA elements in the TH promoter and α-synuclein promoter regions respectively using “SimpleChIP™ Enzymatic Chromatic IP kit” from Cell Signaling (Boston, Mass.).
Briefly, cells from each treatment group (3×10^6 cells) were washed with PBS, trypsinized, centrifuged at 5000 g. The pellet containing the cells was further washed with PBS and cross-linked using 37% formaldehyde for 15 min followed by the addition of glycine solution to cease the cross-linking reaction.
The cells were washed with 4× volumes of 1×PBS and centrifuged at ˜220 g for 5 min. The pellet was resuspended and incubated for 10 min in 5 ml of tissue lysis buffer containing DTT and protease and phosphatase inhibitors. The subsequent steps to isolate the cross-linked chromatin were performed according to the manufacturer's protocol.
The cross-linked chromatin from each sample was apportioned into four equal parts.

[4] = tested on: ERE-mediated transcription; assay: Dual-luciferase ERE reporter assay (ER-mediated transcription); type: cell-based, human; settings: SH-SY5Y transfected with ERE-luciferase, 24 h
Description: Constructs encoding ERE and TH promoter conjugated to the firefly luciferase gene were used in the study. Human neuroblastoma SH-SY5Y cells were plated in 96-well plates at a density of 2×10^4 cells/well.
The cells were transfected when 80% confluent with 0.25 μg of either ERE-firefly Luciferase reporter construct, LXRE-firefly Luciferase reporter construct, or TH promotor-firefly Luciferase promoter construct. Respective non-inducible reporter constructs containing constitutively expressing Renilla luciferase were used as negative internal controls. Constitutively expressing GFP constructs were used as positive control to determine transfection efficiency.
Cells were incubated for 24 hours with Opti-MEM serum free medium (Invitrogen, Carlsbad, Calif.) containing the reporter constructs dissolved in transfection reagent. After 24 hours the medium was changed and the cells were incubated in normal DMEM/F12 medium containing 10% FBS and cells were treated with the different treatment regimens.
The cells were treated in triplicate and harvested 24 hours later and subjected to dual-luciferases assay. The dual-luciferase assay was performed using a “Dual-Luciferase Reporter Assay System” from Promega (Madison, Wis.). The luminescence recorded is expressed as Relative Luminescence Units (RLU) and normalized to per mg protein. […]

[5] = tested on: ARPE-19 cells; type: cell-based
Description: ARPE-19 cells were treated with 0, 10 or 25 μM 27-OHC for 24 hours.

T1 sequence (Q92731 whole entry): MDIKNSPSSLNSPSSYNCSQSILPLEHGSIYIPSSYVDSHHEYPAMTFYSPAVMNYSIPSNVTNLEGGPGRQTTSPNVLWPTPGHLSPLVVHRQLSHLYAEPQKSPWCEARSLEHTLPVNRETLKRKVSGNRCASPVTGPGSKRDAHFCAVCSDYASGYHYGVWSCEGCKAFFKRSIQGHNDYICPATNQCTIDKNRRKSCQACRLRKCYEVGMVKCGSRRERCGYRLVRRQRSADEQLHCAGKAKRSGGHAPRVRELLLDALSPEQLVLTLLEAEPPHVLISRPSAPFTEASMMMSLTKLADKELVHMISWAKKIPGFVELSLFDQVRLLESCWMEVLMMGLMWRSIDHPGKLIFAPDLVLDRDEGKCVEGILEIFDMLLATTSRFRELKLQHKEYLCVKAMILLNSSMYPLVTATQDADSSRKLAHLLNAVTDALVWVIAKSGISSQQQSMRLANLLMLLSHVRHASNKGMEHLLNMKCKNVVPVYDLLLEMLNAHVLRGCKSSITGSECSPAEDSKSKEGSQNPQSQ

In the case of `C[C@@H](CO)CCC[C@@H](C)[C@H]1CC[C@H]2[C@@H]3CC=C4C[C@@H](O)CC[C@]4(C)[C@H]3CC[C@]12C` [27-OHC, 27-hydroxycholesterol], the “TH mRNA” value [1] was “reduces”, the “nuclear translocation / nuclear levels of ERβ” value [2] was “decrease” and the “attenuation of ERβ binding to the ERE on the TH promoter” value [3] was 4 fold. For the same compound, the “decrease of ER-mediated transcription” value [4] was ~5 fold, the “toxicity to RPE cells” value [5] was “toxic” and the Aβ peptide production ([5]; ARPE-19, 0, 10 or 25 μM, 24 hours) was “dose-dependently increased”. For the same compound, the “Ca^2+ homeostasis” value ([5]; ARPE-19, 10 or 25 μM, 24 hours) was “dyshomeostasis”, the ROS generation ([5]; ARPE-19, 10 or 25 μM, 24 hours) was “ROS generation” and the glutathione ([5]; ARPE-19, 10 or 25 μM, 24 hours) was “glutathione depletion”. For the same compound, the “levels of ER stress specific markers caspase 12 and gadd153” value ([5]; ARPE-19, 10 or 25 μM, 24 hours) was “increased”, the “levels of NFκB and heme-oxygenase 1 (HO-1)” value ([5]; ARPE-19, 10 or 25 μM, 24 hours) was “increased” and the mitochondrial membrane potential ([5]; ARPE-19, 10 or 25 μM, 24 hours) was “reduced”.
